Experiment: Inhibition of Con A-induced BALB/c mouse T cell proliferation after 48 hrs by [3H]-thymidine incorporation assay
Assay type: functional, tissue-based

Compound | IC50
C[C@@H]1C(=O)C2=C(COC2=O)[C@@H]2C[C@@](C)(CO)C[C@H]12 | 12.3 µM
C[C@@]12CO[C@]3(C1)c1coc(=O)cc1O[C@H](CO)[C@H]3C2 | 6.6 µM
